# Patent publication US20220089575A1, “FARNESOID X RECEPTOR AGONISTS AND USES THEREOF” (Metacrine, Inc., priority 2017, published 2022)
# Target: T1, hFXR (Homo sapiens, UniProt Q96RI1)
# T1 construct: expressed in transfected cells; host or cells: CV-1 cells
# T1 sequence (Q96RI1 1-486): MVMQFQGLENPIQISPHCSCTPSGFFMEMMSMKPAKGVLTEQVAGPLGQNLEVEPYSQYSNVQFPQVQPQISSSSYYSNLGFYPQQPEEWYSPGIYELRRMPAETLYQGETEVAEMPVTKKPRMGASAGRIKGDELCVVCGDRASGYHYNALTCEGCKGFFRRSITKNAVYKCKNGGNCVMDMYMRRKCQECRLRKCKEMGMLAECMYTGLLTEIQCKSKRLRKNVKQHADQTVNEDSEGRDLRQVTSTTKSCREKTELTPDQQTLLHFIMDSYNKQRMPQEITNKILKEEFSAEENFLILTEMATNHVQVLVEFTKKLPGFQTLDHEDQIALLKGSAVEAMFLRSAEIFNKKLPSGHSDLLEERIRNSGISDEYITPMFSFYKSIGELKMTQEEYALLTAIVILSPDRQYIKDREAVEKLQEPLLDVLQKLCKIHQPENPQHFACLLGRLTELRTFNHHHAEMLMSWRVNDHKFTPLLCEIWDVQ
# T1 sequence (P19793 1-462 partner): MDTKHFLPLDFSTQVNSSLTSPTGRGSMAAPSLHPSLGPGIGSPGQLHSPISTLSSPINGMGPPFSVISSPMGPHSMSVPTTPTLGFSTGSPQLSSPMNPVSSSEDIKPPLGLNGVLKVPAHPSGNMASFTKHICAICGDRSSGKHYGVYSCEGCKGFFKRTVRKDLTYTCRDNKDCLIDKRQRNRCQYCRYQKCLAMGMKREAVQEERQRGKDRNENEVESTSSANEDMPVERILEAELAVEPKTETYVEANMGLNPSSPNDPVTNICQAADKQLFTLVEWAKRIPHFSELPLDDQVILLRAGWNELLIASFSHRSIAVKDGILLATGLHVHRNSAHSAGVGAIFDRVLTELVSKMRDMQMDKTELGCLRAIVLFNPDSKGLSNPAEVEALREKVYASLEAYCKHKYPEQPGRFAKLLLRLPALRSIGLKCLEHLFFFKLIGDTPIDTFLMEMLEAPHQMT
# Experiment: In Vitro FXR Assay (TK): TK-ECRE-luc reporter in transfected CV-1 cells
# Assay type: cell-based
# Conditions: 18 hrs, luminescence, maximum efficacy of <25% of the Fexarmine control classified as '+'
# Experimental: CV-1 cells were seeded at a density of 2,000,000 cells in a T175 flask with DMEM+10% charcoal double-stripped FBS and incubated at 37° C. in 5% CO2 for 18 h (O/N).
# After 18 h of incubation, the medium in the T175 flask was changed with fresh DMEM+10% charcoal super-stripped serum. In a polypropylene tube, 2500 μL OptiMEM (Life Technologies, Cat #31985-062) was combined with expression plasmids for hFXR, hRXR, TK-ECRE-luc and pCMX-YFP. The tube was then briefly vortexed and incubated at room temperature for 5 minutes. Transfection reagent (X-tremeGENE HP from Roche, Cat #06 366 236 001) was added to the OptiMEM/plasmid mixture vortexed and incubated at room temperature for 20 minutes. Following incubation, the transfection reagent/DNA mixture complex was added to cells in the T175 flask and the cells were incubated at 37° C. in 5% CO2 for 18 h (O/N).
# Compounds were serially diluted in DMSO and added to transfected CV-1 cells. The cells were then incubated for 18 hrs. The next day cells were lysed and examined for luminescence.
row,EC50 [nM],SMILES
1,≤ 250,"COc1ccc([C@H]2CC[C@H](CN(c3cc(-c4coc(C(C)C)n4)ccn3)C(=O)[C@H]3CC[C@H](OC(=O)N4CC(N(C)C)C4)CC3)CC2)nc1C [Compound 7.84, trans-4-((4-(2-Isopropyloxazol-4-yl)pyridine-2-yl)((trans-4-(5-methoxy-6-methylpyridin-2-yl)cyclohexyl)methyl)carbamoyl)cyclohexyl 3-(dimethylamino)azetidine-1-carboxylate]"
2,≤ 250,"COc1ccc([C@H]2CC[C@H](CN(c3cccc(-c4coc(C5CC5)n4)c3)C(=O)[C@H]3CC[C@H](OC(=O)N4CC(O)C4)CC3)CC2)cc1C [Compound 7.62, trans-4-((3-(2-Cyclopropyloxazol-4-yl)phenyl)((trans-4-(4-methoxy-3-methylphenyl)cyclohexyl)methyl)carbamoyl)cyclohexyl 3-hydroxyazetidine-1-carboxylate]"
3,≤ 250,"COc1ccc([C@H]2CC[C@H](CN(c3cc(-c4coc(C5CC5)n4)ccn3)C(=O)[C@H]3CC[C@H](OC(=O)N4CCOCC4)CC3)CC2)nc1C [Compound 6.59, trans-4-((4-(2-Cyclopropyloxazol-4-yl)pyridine-2-yl)((trans-4-(5-methoxy-6-methylpyridin-2-yl)cyclohexyl)methyl)carbamoyl)cyclohexyl morpholine-4-carboxylate]"
4,≤ 250,"COc1ccc([C@H]2CC[C@H](CN(c3cccc(-c4cnc(C5CC5)s4)c3)C(=O)[C@H]3CC[C@H](NC(=O)Cc4c[nH]cn4)CC3)CC2)cc1C [Compound 31.15, trans-4-(2-(1H-Imidazol-4-yl)acetamido)-N-(3-(2-cyclopropylthiazol-5-yl)phenyl)-N-((trans-4-(4-methoxy-3-methylphenyl)cyclohexyl)methyl) cyclohexanecarboxamide]"
5,≤ 250,"CNC(=O)O[C@H]1CC[C@H](C(=O)N(C[C@H]2CC[C@H](c3ccc(OC)c(C)c3)CC2)c2cccc(-c3cnn(C(C)C)c3)c2)CC1 [Compound 5.10, trans-4-((3-(1-Isopropyl-1H-pyrazol-4-yl)phenyl)((trans-4-(4-methoxy-3-methylphenyl)cyclohexyl)methyl)carbamoyl)cyclohexyl methylcarbamate]"
6,≤ 250,"COc1ccc([C@H]2CC[C@H](CN(c3cccc(-c4cnc(C5CC5)s4)c3)C(=O)[C@H]3CC[C@H](OC(=O)NCCO)CC3)CC2)cc1C [Compound 4.01, trans-4-((3-(2-Cyclopropylthiazol-5-yl)phenyl)((trans-4-(4-methoxy-3-methylphenyl)cyclohexyl)methyl)carbamoyl)cyclohexyl (2-hydroxyethyl)carbamate]"
7,≤ 250,"COc1ccc([C@H]2CC[C@H](CN(c3cc(-c4cnc(C5CC5)s4)ccn3)C(=O)[C@H]3CC[C@H](OC(=O)N4CC(O)C4)CC3)CC2)cc1C [Compound 7.03, trans-4-((4-(2-Cyclopropylthiazol-5-yl)pyridin-2-yl)((trans-4-(4-methoxy-3-methylphenyl)cyclohexyl)methyl)carbamoyl)cyclohexyl 3-hydroxyazetidine-1-carboxylate]"
8,≤ 250,"COC(=O)N[C@H]1CC[C@H](C(=O)N(C[C@H]2CC[C@H](c3ccc(OC)c(C)c3)CC2)c2cccc(-c3cnn(C4CC4)c3)c2)CC1 [Compound 26, Methyl (trans-4-((3-(1-cyclopropyl-1H-pyrazol-4-yl)phenyl)((trans-4-(4-methoxy-3-methylphenyl)cyclohexyl)methyl)carbamoyl)cyclohexyl)carbamate]"
9,≤ 250,"COc1ccc([C@H]2CC[C@H](CN(c3cc(-c4coc(C5CC5)n4)ccn3)C(=O)[C@H]3CC[C@H](NC(=O)CO)CC3)CC2)cc1C [Compound 26.18, trans-N-(4-(2-Cyclopropyloxazol-4-yl)pyridin-2-yl)-4-(2-hydroxyacetamido)-N-((trans-4-(4-methoxy-3-methylphenyl)cyclohexyl)methyl) cyclohexanecarboxamide]"
10,250 to 1000,"COc1ccc([C@H]2CC[C@H](CN(c3cccc(-c4cnc(C5CC5)s4)c3)C(=O)[C@H]3CC[C@H](NC(=O)COCCN)CC3)CC2)cc1C [Compound 32.05, trans-4-(2-(2-Aminoethoxy)acetamido)-N-(3-(2-cyclopropylthiazol-5-yl)phenyl)-N-((trans-4-(4-methoxy-3-methylphenyl)cyclohexyl)methyl) cyclohexanecarboxamide]"
11,≤ 250,"COc1ccc([C@H]2CC[C@H](CN(c3cccc(-c4cnn(C5CC5)c4)c3)C(=O)[C@H]3CC[C@H](OC(=O)N4CCOCC4)CC3)CC2)cc1C [Compound 4.07, trans-4-((3-(1-Cyclopropyl-1H-pyrazol-4-yl)phenyl)((trans-4-(4-methoxy-3-methylphenyl)cyclohexyl)methyl)carbamoyl)cyclohexyl morpholine-4-carboxylate]"
12,≤ 250,"CCOC(=O)C[C@H]1CC[C@H](C(=O)N(C[C@H]2CC[C@H](c3ccc(OC)c(C#N)c3)CC2)c2cc(-c3cnn(C(C)C)c3)ccn2)CC1 [Compound 18.21, Ethyl 2-(trans-4-(((trans-4-(3-cyano-4-methoxyphenyl)cyclohexyl)methyl)(4-(1-isopropyl-1H-pyrazol-4-yl)pyridin-2-yl)carbamoyl)cyclohexyl)acetate]"
13,250 to 1000,"COc1ccc([C@H]2CC[C@H](CN(c3cccc(-c4cnc(C5CC5)s4)c3)C(=O)[C@H]3CC[C@H](OCCN(C)C)CC3)CC2)cc1C [Compound 13.05, trans-N-(3-(2-Cyclopropylthiazol-5-yl)phenyl)-4-(2-(dimethylamino)ethoxy)-N-((trans-4-(4-methoxy-3-methylphenyl)cyclohexyl)methyl) cyclohexanecarboxamide]"
14,≤ 250,"COc1ccc([C@H]2CC[C@H](CN(c3cc(-c4cnn(C(C)C)c4)ccn3)C(=O)[C@H]3CC[C@H](CC(=O)O)CC3)CC2)nc1C [Compound 17.25, 2-(trans-4-((4-(1-Isopropyl-1H-pyrazol-4-yl)pyridin-2-yl)((trans-4-(5-methoxy-6-methylpyridin-2-yl)cyclohexyl)methyl)carbamoyl)cyclohexyl) acetic acid]"
15,≤ 250,"CNC(=O)O[C@H]1CC[C@H](C(=O)N(C[C@H]2CC[C@H](c3ccc(N(C)C)nc3)CC2)c2cccc(-c3cnn(C4CC4)c3)c2)CC1 [Compound 5.09, trans-4-((3-(1-Cyclopropyl-1H-pyrazol-4-yl)phenyl)((trans-4-(6-(dimethylamino)pyridin-3-yl)cyclohexyl)methyl)carbamoyl)cyclohexyl methylcarbamate]"
16,≤ 250,"COc1ccc([C@H]2CC[C@H](CN(c3cccc(-c4cnc(C5CC5)s4)c3)C(=O)[C@H]3CC[C@H](NC(=O)COCCN(C)C)CC3)CC2)cc1C [Compound 32.04, trans-N-(3-(2-Cyclopropylthiazol-5-yl)phenyl)-4-(2-(2-(dimethylamino)ethoxy)acetamido)-N-((trans-4-(4-methoxy-3-methylphenyl)cyclohexyl)methyl) cyclohexanecarboxamide]"
17,≤ 250,"COc1ccc([C@H]2CC[C@H](CN(c3cc(-c4coc(C5CC5)n4)ccn3)C(=O)[C@H]3CC[C@H](OC(=O)NC(C)C)CC3)CC2)nc1C [Compound 6.58, trans-4-((4-(2-Cyclopropyloxazol-4-yl)pyridine-2-yl)((trans-4-(5-methoxy-6-methylpyridin-2-yl)cyclohexyl)methyl)carbamoyl)cyclohexyl isopropylcarbamate]"
18,≤ 250,"COc1ccc([C@H]2CC[C@H](CN(c3cccc(-c4cnn(C5CC5)c4)c3)C(=O)[C@H]3CC[C@H](OC(=O)N4CC(O)C4)CC3)CC2)cc1C [Compound 4.25, trans-4-((3-(1-Cyclopropyl-1H-pyrazol-4-yl)phenyl)((trans-4-(4-methoxy-3-methylphenyl)cyclohexyl)methyl)carbamoyl)cyclohexyl 3-hydroxyazetidine-1-carboxylate]"
